Data taken from ChEMBL document CHEMBL5352394, “Development of fluorizoline analogues as prohibitin ligands that modulate C-RAF signaling, p21 expression and melanogenesis” (Eur J Med Chem, 2022).
Active and inactive are the calls of the source. The rule behind the calls is not given here.

Experiments:
MCF7 [1] = test: Upregulation of p21 expression in human MCF7 cells at 1 uM incubated for 72 hrs by Western blot analysis; format: functional, cell-based
MCF7 [2] = test: Antiproliferative activity against human MCF7 cells assessed as reduction in cell viability at 1 uM incubated for 72 hrs by trypan blue exclusion assay; format: functional, cell-based
[3] = biological target: RAF proto-oncogene serine/threonine-protein kinase (Homo sapiens) (UniProt P04049); test: Inhibition of C-RAF phosphorylation at Ser 338 residue in human HeLa cells at 10 uM preincubated with compound for 1 hr and followed by EGF stimulation for 30 mins by Western blot analysis; format: cell-based
HBL = test: Induction of pigmentation in human HBL cells assessed as melanogenesis at 0.1 to 10 uM by microscopic analysis; format: functional, cell-based; details: dose 0.1-10 µM
[4] = biological target: Dual specificity mitogen-activated protein kinase kinase 1 (Homo sapiens) (UniProt Q02750); test: Inhibition of MEK1 phosphorylation in human HeLa cells at 10 uM preincubated for 1 hr and followed by EGF stimulation for 30 mins by Western blot analysis; format: cell-based
HeLa = test: Cytotoxicity against human HeLa cells assessed as reduction in cell viability measured after 24 hrs by MTT assay; format: functional, cell-based; details: dose 1.25-10 µM
MCF7 [5] = test: Antiproliferative activity against human MCF7 cells transfected with p21 siRNA assessed as reduction in cell viability at 1 uM incubated for 48 hrs by tryphan blue dye exclusion analysis; format: functional, cell-based

Chain of RAF proto-oncogene serine/threonine-protein kinase (Homo sapiens) (P04049 whole entry): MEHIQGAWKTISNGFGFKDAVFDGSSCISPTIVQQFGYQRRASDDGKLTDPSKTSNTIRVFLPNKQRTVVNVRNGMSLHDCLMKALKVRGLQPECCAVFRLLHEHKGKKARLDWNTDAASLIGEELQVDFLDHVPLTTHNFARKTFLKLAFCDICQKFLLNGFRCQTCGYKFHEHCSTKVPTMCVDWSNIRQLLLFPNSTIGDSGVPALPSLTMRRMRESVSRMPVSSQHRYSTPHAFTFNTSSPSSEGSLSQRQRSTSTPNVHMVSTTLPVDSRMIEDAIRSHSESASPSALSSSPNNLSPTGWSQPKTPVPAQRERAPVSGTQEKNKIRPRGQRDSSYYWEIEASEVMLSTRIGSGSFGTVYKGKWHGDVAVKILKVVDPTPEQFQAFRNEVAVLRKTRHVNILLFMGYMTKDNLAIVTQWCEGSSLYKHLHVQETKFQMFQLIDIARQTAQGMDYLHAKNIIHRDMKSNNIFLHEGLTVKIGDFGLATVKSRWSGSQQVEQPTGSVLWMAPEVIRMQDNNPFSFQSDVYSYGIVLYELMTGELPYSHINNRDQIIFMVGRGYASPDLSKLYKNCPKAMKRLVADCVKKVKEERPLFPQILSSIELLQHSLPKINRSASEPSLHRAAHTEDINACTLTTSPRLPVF
Chain of Dual specificity mitogen-activated protein kinase kinase 1 (Homo sapiens) (Q02750 whole entry): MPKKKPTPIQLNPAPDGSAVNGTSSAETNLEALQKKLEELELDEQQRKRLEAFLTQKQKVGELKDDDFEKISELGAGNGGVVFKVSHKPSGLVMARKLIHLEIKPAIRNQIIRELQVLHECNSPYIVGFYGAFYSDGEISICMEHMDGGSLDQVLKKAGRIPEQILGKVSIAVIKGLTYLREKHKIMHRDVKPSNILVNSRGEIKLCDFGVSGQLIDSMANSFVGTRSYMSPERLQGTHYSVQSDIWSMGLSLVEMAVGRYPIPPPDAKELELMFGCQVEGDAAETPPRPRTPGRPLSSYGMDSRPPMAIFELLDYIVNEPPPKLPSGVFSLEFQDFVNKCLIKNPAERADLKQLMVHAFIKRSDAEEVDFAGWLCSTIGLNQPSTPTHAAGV

| SMILES | Activity (MCF7 [1]) | Activity (MCF7 [2]) | inhibition [3] | Activity (HBL) | inhibition [4] | Activity (HeLa) | Activity (MCF7 [5]) |
| --- | --- | --- | --- | --- | --- | --- | --- |
| FC1(F)SC(c2ccc(Cl)cc2)=NC1(F)c1ccc(Cl)cc1 (stereo not drawn) | inactive | inactive | inactive | Active | inactive | – | – |
| FC1(F)N=C(c2ccc(Cl)cn2)SC1(F)c1ccc(Cl)cc1 (stereo not drawn) | – | – | Active | Active | inactive | Dose-Dependent Effect | – |
| FC1(F)N=C(c2cnccn2)SC1(F)c1ccc(Cl)cc1 (stereo not drawn) | Active | Active | inactive | Active | inactive | – | inactive |
| FC1(F)N=C(c2ccc(Br)cc2)SC1(F)c1ccc(Cl)cc1 (stereo not drawn) | Active | Active | Active | Active | – | Dose-Dependent Effect | – |
| Cc1ccc(C2(F)SC(c3ccc(Cl)cc3)=NC2(F)F)cc1 (stereo not drawn) | – | – | Active | Active | Active | Dose-Dependent Effect | – |
| O=C(c1ccccc1)c1ccc(C2=NC(F)(F)C(F)(c3ccc(Cl)cc3)S2)cc1 (stereo not drawn) | – | – | Active | Active | – | – | – |
| Cc1ccc(C2(F)SC(c3ccccc3)=NC2(F)F)cc1 (stereo not drawn) | – | – | inactive | Active | inactive | Dose-Dependent Effect | inactive |
| FC1(F)N=C(c2ccccn2)SC1(F)c1ccccc1 (stereo not drawn) | – | – | Active | Active | – | – | – |
| FC1(F)N=C(c2ccc(Cl)cc2)SC1(F)c1ccc(Cl)cc1 (stereo not drawn) | – | – | – | Active | – | Dose-Dependent Effect | – |
| FC1(F)N=C(c2ncccn2)SC1(F)c1ccc(Cl)cc1 (stereo not drawn) | – | – | Active | Active | Active | – | – |
| FC1(F)N=C(c2ccccn2)SC1(F)c1ccc(Cl)cc1 (stereo not drawn) | – | – | Active | Active | Active | – | – |
| CC1(F)N=C(c2ccc(Cl)cc2)SC1(F)c1ccc(Cl)cc1 (stereo not drawn) | – | – | inactive | – | Active | – | – |
